Laboratory results from patent US20040052750A1, “Compositions for prevention and alleviation of skin wrinkles” (priority 2000, published 2004).

Legend:
[1] = tested on: fibroblasts derived from a human; assay: Promoting collagen production in fibroblasts (3H-proline incorporation into collagenase-sensitive protein); format: cell-based; conditions: control = 100%
Description: The experimental protocol in detail is as follows.
Human-derived fibroblasts were transferred to a 24 well plate and cultured in a medium containing 10% fetal bovine serum (FBS) for 24 hours, followed by washing twice with phosphate buffered saline. […] After the incubation was terminated, cells from each group were harvested and two fractions of each culture were prepared. One fraction from each culture was treated with collagenase. To all fractions was added trichloroacetic acid to precipitate proteins. The amount of radioactivity incorporated into collagenase-sensitive protein was measured and compared with that of the other fraction which was not treated with collagenase. The difference in radioactivity was attributed to the promoting effect of the compound.

rat skin = assay: Promotion of collagen production in rat skin (hydroxyproline in implanted PVA sponge); format: in vivo, SD rats; conditions: 200 μl every day for 10 days, control = 100%
Description: In brief, 5-week male SD rats were grouped with 5 rats per group. The rats were each incised 1 cm in the center of their abdomens and PVA sponges (Unipoint ind.) were inserted therein. After suturing, as for experimental groups, respective active ingredients to be examined were applied to the PVA sponge-embeded regions i n a volume o f 200 μl every day for 10 days. Upon autopsy, the PVA sponge was removed to quantify hydroxyproline. The PVA sponge was added with 4 ml of 6 N HCl, hydrolized at 130° C. for 3 hours and was subjected to complete drying. 50 μl of methanol was added and the solution was incubated at 110° C. until HCl was removed. 1.2 ml of 50% isopropanol was added to dissolve the remaining precipitate. 200 μl of chloramine-T (sodium p-toluensulfochloramide trihydrate) solution was added while stirring, and let stand for 10 min. After adding 1.2 ml of Ehrlich reagent and mixing, the solution was incubated at 50° C. for 90 min. The resulting solution was cooled to room temperature and absorbance at 558 nm was measured. Hydroxyproline standard solutions were prepared by dissolving 1 mg hydroxyproline in 1 ml HCl and diluting it to concentrations of 0, 0.2, 0.4, 0.8, 1 mg each relative to 25 μl of 6 N HCl. The standard solutions were hydrolyzed at 130° C. for 3 hours. The quantified value of hydroxyproline, relative to hydroxyproline value (100%) of the control group which was applied with solvent only, are shown in Table 2.

hairless mice [2] = assay: Inhibiting the generation of wrinkles in hairless mice (simulated sunlight); format: in vivo; conditions: 10 per group
Description: 6-week hairless mice were placed into 21 experimental groups and 3 control groups, with 10 rats per group. […] The experimental protocol in detail is as follows. Hairless mice were radiated using simulated sunlight at a dose of 2 MED (double Minimal Erythema Dose) 3 days a week for […], thereby generating wrinkles. Respective active ingredients or the solvent only were applied twice every day (specifically, on radiation days, the application was performed at 30 min before and after the radiation), at a volume of 100 μl each for 10 weeks from the first radiation day. Degrees of inhibition of generated wrinkles were determined. The determination was performed by visual observation with naked eyes and photography.

hairless mice [3] = assay: Alleviating photo-induced wrinkles in hairless mice; format: in vivo; conditions: twice a day for 6 weeks, 10 per group
Description: Mice were placed into 21 experimental groups and 3 control groups, with 10 rats per group. […] The experimental protocol is as follows. Hairless mice were radiated using a simulated sunlight at a dose of 2 MED (double Minimal Erythema Dose) 3 days a week for 10 weeks, thereby generating wrinkles. Then, respective active ingredients or the solvent only were applied at a volume of 100 μl each, twice a day for 6 weeks. Degrees of wrinkle reduction were determined. The determination was performed by visually observing the compound-applied region with naked eyes, and the region was photographed. The degrees of alleviation of wrinkles in the compound-treatment groups (experimental groups) were compared with those of the control group and were determined as one of 4 stages, that is, none (Score 0), slight (Score 1), moderate (Score 2) and high (Score 3), and the corresponding mice were counted.

CCOC(=O)C1=C(COCCN)NC(C)=C(C(=O)OC)C1c1ccccc1Cl (centres unmarked) [Amoldipine]
Effect of promoting collagen production in fibroblasts (rate of collagen production) ([1]; 10^-5 M): 355.26%
Effect of promoting collagen production in fibroblasts (rate of collagen production) ([1]; 10^-6 M): 330.42%
Effect of promoting collagen production in fibroblasts (rate of collagen production) ([1]; 10^-7 M): 280.07%
Effect of promoting collagen production in fibroblasts (rate of collagen production) ([1]; 10^-8 M): 182.42%
Effect of promoting collagen production in animal skin (hydroxyproline value vs control) (rat skin; 10^-5 M): 181.12%
Effect of promoting collagen production in animal skin (hydroxyproline value vs control) (rat skin; 10^-6 M): 163.84%
Effect of promoting collagen production in animal skin (hydroxyproline value vs control) (rat skin; 10^-7 M): 149.65%
Effect of promoting collagen production in animal skin (hydroxyproline value vs control) (rat skin; 10^-8 M): 132.50%
Inhibition of wrinkles, Score 0 (none) (hairless mice [2]; 10^-3 M): 0 number of mice
Inhibition of wrinkles, Score 1 (slight) (hairless mice [2]; 10^-3 M): 0 number of mice
Inhibition of wrinkles, Score 2 (moderate) (hairless mice [2]; 10^-3 M): 2 number of mice
Inhibition of wrinkles, Score 3 (high) (hairless mice [2]; 10^-3 M): 8 number of mice
Inhibition of wrinkles, Score 0 (none) (hairless mice [2]; 10^-5 M): 0 number of mice
Inhibition of wrinkles, Score 1 (slight) (hairless mice [2]; 10^-5 M): 1 number of mice
Inhibition of wrinkles, Score 2 (moderate) (hairless mice [2]; 10^-5 M): 3 number of mice
Inhibition of wrinkles, Score 3 (high) (hairless mice [2]; 10^-5 M): 6 number of mice
Inhibition of wrinkles, Score 0 (none) (hairless mice [2]; 10^-8 M): 0 number of mice
Inhibition of wrinkles, Score 1 (slight) (hairless mice [2]; 10^-8 M): 1 number of mice
Inhibition of wrinkles, Score 2 (moderate) (hairless mice [2]; 10^-8 M): 1 number of mice
Inhibition of wrinkles, Score 3 (high) (hairless mice [2]; 10^-8 M): 8 number of mice
Reduction of wrinkles, Score 0 (none) (hairless mice [3]; 10^-3 M): 0 number of mice
Reduction of wrinkles, Score 1 (slight) (hairless mice [3]; 10^-3 M): 1 number of mice
Reduction of wrinkles, Score 2 (moderate) (hairless mice [3]; 10^-3 M): 3 number of mice
Reduction of wrinkles, Score 3 (high) (hairless mice [3]; 10^-3 M): 6 number of mice
Reduction of wrinkles, Score 0 (none) (hairless mice [3]; 10^-5 M): 0 number of mice
Reduction of wrinkles, Score 1 (slight) (hairless mice [3]; 10^-5 M): 2 number of mice
Reduction of wrinkles, Score 2 (moderate) (hairless mice [3]; 10^-5 M): 2 number of mice
Reduction of wrinkles, Score 3 (high) (hairless mice [3]; 10^-5 M): 6 number of mice
Reduction of wrinkles, Score 0 (none) (hairless mice [3]; 10^-8 M): 0 number of mice
Reduction of wrinkles, Score 1 (slight) (hairless mice [3]; 10^-8 M): 1 number of mice
Reduction of wrinkles, Score 2 (moderate) (hairless mice [3]; 10^-8 M): 1 number of mice
Reduction of wrinkles, Score 3 (high) (hairless mice [3]; 10^-8 M): 8 number of mice

COc1ccc([C@@H]2Sc3ccccc3N(CCN(C)C)C(=O)[C@@H]2OC(C)=O)cc1 [Diltiazem]
Effect of promoting collagen production in fibroblasts (rate of collagen production) ([1]; 10^-5 M): 362.12%
Effect of promoting collagen production in fibroblasts (rate of collagen production) ([1]; 10^-6 M): 321.23%
Effect of promoting collagen production in fibroblasts (rate of collagen production) ([1]; 10^-7 M): 276.25%
Effect of promoting collagen production in fibroblasts (rate of collagen production) ([1]; 10^-8 M): 199.15%
Effect of promoting collagen production in animal skin (hydroxyproline value vs control) (rat skin; 10^-5 M): 175.23%
Effect of promoting collagen production in animal skin (hydroxyproline value vs control) (rat skin; 10^-6 M): 157.45%
Effect of promoting collagen production in animal skin (hydroxyproline value vs control) (rat skin; 10^-7 M): 136.76%
Effect of promoting collagen production in animal skin (hydroxyproline value vs control) (rat skin; 10^-8 M): 122.44%
Inhibition of wrinkles, Score 0 (none) (hairless mice [2]; 10^-3 M): 0 number of mice
Inhibition of wrinkles, Score 1 (slight) (hairless mice [2]; 10^-3 M): 1 number of mice
Inhibition of wrinkles, Score 2 (moderate) (hairless mice [2]; 10^-3 M): 2 number of mice
Inhibition of wrinkles, Score 3 (high) (hairless mice [2]; 10^-3 M): 7 number of mice
Inhibition of wrinkles, Score 0 (none) (hairless mice [2]; 10^-5 M): 0 number of mice
Inhibition of wrinkles, Score 1 (slight) (hairless mice [2]; 10^-5 M): 2 number of mice
Inhibition of wrinkles, Score 2 (moderate) (hairless mice [2]; 10^-5 M): 2 number of mice
Inhibition of wrinkles, Score 3 (high) (hairless mice [2]; 10^-5 M): 6 number of mice
Inhibition of wrinkles, Score 0 (none) (hairless mice [2]; 10^-8 M): 0 number of mice
Inhibition of wrinkles, Score 1 (slight) (hairless mice [2]; 10^-8 M): 2 number of mice
Inhibition of wrinkles, Score 2 (moderate) (hairless mice [2]; 10^-8 M): 2 number of mice
Inhibition of wrinkles, Score 3 (high) (hairless mice [2]; 10^-8 M): 6 number of mice
Reduction of wrinkles, Score 0 (none) (hairless mice [3]; 10^-3 M): 0 number of mice
Reduction of wrinkles, Score 1 (slight) (hairless mice [3]; 10^-3 M): 0 number of mice
Reduction of wrinkles, Score 2 (moderate) (hairless mice [3]; 10^-3 M): 2 number of mice
Reduction of wrinkles, Score 3 (high) (hairless mice [3]; 10^-3 M): 8 number of mice
Reduction of wrinkles, Score 0 (none) (hairless mice [3]; 10^-5 M): 0 number of mice
Reduction of wrinkles, Score 1 (slight) (hairless mice [3]; 10^-5 M): 1 number of mice
Reduction of wrinkles, Score 2 (moderate) (hairless mice [3]; 10^-5 M): 2 number of mice
Reduction of wrinkles, Score 3 (high) (hairless mice [3]; 10^-5 M): 7 number of mice
Reduction of wrinkles, Score 0 (none) (hairless mice [3]; 10^-8 M): 0 number of mice
Reduction of wrinkles, Score 1 (slight) (hairless mice [3]; 10^-8 M): 1 number of mice
Reduction of wrinkles, Score 2 (moderate) (hairless mice [3]; 10^-8 M): 2 number of mice
Reduction of wrinkles, Score 3 (high) (hairless mice [3]; 10^-8 M): 7 number of mice

COC(=O)C1=C(C)NC(C)=C(C(=O)OC)C1c1ccccc1[N+](=O)[O-] [Nifedipine]
Effect of promoting collagen production in fibroblasts (rate of collagen production) ([1]; 10^-5 M): 358.16%
Effect of promoting collagen production in fibroblasts (rate of collagen production) ([1]; 10^-6 M): 330.30%
Effect of promoting collagen production in fibroblasts (rate of collagen production) ([1]; 10^-7 M): 292.21%
Effect of promoting collagen production in fibroblasts (rate of collagen production) ([1]; 10^-8 M): 204.31%
Inhibition of wrinkles, Score 0 (none) (hairless mice [2]; 10^-3 M): 0 number of mice
Inhibition of wrinkles, Score 1 (slight) (hairless mice [2]; 10^-3 M): 2 number of mice
Inhibition of wrinkles, Score 2 (moderate) (hairless mice [2]; 10^-3 M): 3 number of mice
Inhibition of wrinkles, Score 3 (high) (hairless mice [2]; 10^-3 M): 5 number of mice
Inhibition of wrinkles, Score 0 (none) (hairless mice [2]; 10^-5 M): 0 number of mice
Inhibition of wrinkles, Score 1 (slight) (hairless mice [2]; 10^-5 M): 2 number of mice
Inhibition of wrinkles, Score 2 (moderate) (hairless mice [2]; 10^-5 M): 3 number of mice
Inhibition of wrinkles, Score 3 (high) (hairless mice [2]; 10^-5 M): 5 number of mice
Inhibition of wrinkles, Score 0 (none) (hairless mice [2]; 10^-8 M): 0 number of mice
Inhibition of wrinkles, Score 1 (slight) (hairless mice [2]; 10^-8 M): 2 number of mice
Inhibition of wrinkles, Score 2 (moderate) (hairless mice [2]; 10^-8 M): 3 number of mice
Inhibition of wrinkles, Score 3 (high) (hairless mice [2]; 10^-8 M): 5 number of mice
Reduction of wrinkles, Score 0 (none) (hairless mice [3]; 10^-3 M): 0 number of mice
Reduction of wrinkles, Score 1 (slight) (hairless mice [3]; 10^-3 M): 2 number of mice
Reduction of wrinkles, Score 2 (moderate) (hairless mice [3]; 10^-3 M): 2 number of mice
Reduction of wrinkles, Score 3 (high) (hairless mice [3]; 10^-3 M): 6 number of mice
Reduction of wrinkles, Score 0 (none) (hairless mice [3]; 10^-5 M): 0 number of mice
Reduction of wrinkles, Score 1 (slight) (hairless mice [3]; 10^-5 M): 2 number of mice
Reduction of wrinkles, Score 2 (moderate) (hairless mice [3]; 10^-5 M): 2 number of mice
Reduction of wrinkles, Score 3 (high) (hairless mice [3]; 10^-5 M): 6 number of mice
Reduction of wrinkles, Score 0 (none) (hairless mice [3]; 10^-8 M): 0 number of mice
Reduction of wrinkles, Score 1 (slight) (hairless mice [3]; 10^-8 M): 2 number of mice
Reduction of wrinkles, Score 2 (moderate) (hairless mice [3]; 10^-8 M): 3 number of mice
Reduction of wrinkles, Score 3 (high) (hairless mice [3]; 10^-8 M): 5 number of mice
